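A five-concentration, 48-hour dose response in 96-well plates underlies each endpoint, interpolated linearly between surrounding concentrations. The concentration for 50% growth inhibition is given as GI50.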 Calls of active or inactive are those of the source. Cut-off read from the data, not from the text of the source: active = GI50 up to about 1.1 µM and inactive = higher. Non-standard residues stand in square brackets, D forms with d. Residues, ends and D or L forms follow the SMILES beside them.
Legend:
Test in all cases: growth of human tumour cells (NCI), 48 h
SK-OV-3 = tested on: SK-OV-3
MOLT-4 = tested on: MOLT-4
HL-60 = tested on: HL-60
EKVX = tested on: EKVX
MDA-MB-435 = tested on: MDA-MB-435
NCI-H460 = tested on: NCI-H460
HOP-62 = tested on: HOP-62
IGROV-1 = tested on: IGROV-1
M14 = tested on: M14
SK-MEL-5 = tested on: SK-MEL-5
CCRF-CEM = tested on: CCRF-CEM
NCI-H522 = tested on: NCI-H522
HCT-116 = tested on: HCT-116
DU-145 = tested on: DU-145
KM12 = tested on: KM12
OVCAR-5 = tested on: OVCAR-5
SR = tested on: SR
SF-539 = tested on: SF-539
RXF 393 = tested on: RXF 393
A498 = tested on: A498

Row | Structure (SMILES) | GI50 (SK-OV-3) | GI50 (MOLT-4) | GI50 (HL-60) | GI50 (EKVX) | GI50 (MDA-MB-435) | GI50 (NCI-H460) | GI50 (HOP-62) | GI50 (IGROV-1) | GI50 (M14) | GI50 (SK-MEL-5) | GI50 (CCRF-CEM) | GI50 (NCI-H522) | GI50 (HCT-116) | GI50 (DU-145) | GI50 (KM12) | GI50 (OVCAR-5) | GI50 (SR) | GI50 (SF-539) | GI50 (RXF 393) | GI50 (A498)
1 | CC(C)OCC(O)COc1ccc2ccc(=O)oc2c1 (stereo not given) | > 100 µM (inactive) | > 100 µM (inactive) | > 100 µM (inactive) | > 100 µM (inactive) | > 100 µM (inactive) | > 100 µM (inactive) | > 100 µM (inactive) | > 100 µM (inactive) | > 100 µM (inactive) | > 100 µM (inactive) | > 100 µM (inactive) | > 100 µM (inactive) | > 100 µM (inactive) | > 100 µM (inactive) | > 100 µM (inactive) | > 100 µM (inactive) |  |  |  | 
2 | O=C(CNc1ccc(Cl)cc1Cl)NC1C=Cc2ccc(S(=O)(=O)Nc3ccc(Cl)cc3Cl)cc2C1=O (stereo not given) | > 100 µM (inactive) | > 100 µM (inactive) | > 100 µM (inactive) | > 100 µM (inactive) | > 100 µM (inactive) | > 100 µM (inactive) | > 100 µM (inactive) | > 100 µM (inactive) | > 100 µM (inactive) |  | 9.18 µM (inactive) | > 100 µM (inactive) | > 100 µM (inactive) | > 100 µM (inactive) | > 100 µM (inactive) | > 100 µM (inactive) | > 100 µM (inactive) | > 100 µM (inactive) |  | 
3 | CCCCCCC(O)C(=O)OC1C2C(CC1(C)C)C(O)C13OC1C(O)C1(CO1)[C@@]23C (stereo not given in full) | 61.2 µM (inactive) | 16.1 µM (inactive) | > 100 µM (inactive) | 54.5 µM (inactive) | 50.9 µM (inactive) | > 10 µM (inactive) | 58.7 µM (inactive) | 43 µM (inactive) | 40.6 µM (inactive) | 13.4 µM (inactive) | 27.5 µM (inactive) | 61.1 µM (inactive) | 47.4 µM (inactive) | > 100 µM (inactive) | 47.6 µM (inactive) | > 100 µM (inactive) | 52.2 µM (inactive) |  | 23 µM (inactive) | 
4 | COc1ccc(C(=O)C(c2ccc(OC)cc2)C2C(=O)Oc3ccccc32)cc1 (stereo not given) | > 10 µM (inactive) | > 10 µM (inactive) | > 10 µM (inactive) | > 10 µM (inactive) |  | > 10 µM (inactive) | > 10 µM (inactive) | > 10 µM (inactive) | > 10 µM (inactive) | > 10 µM (inactive) | > 10 µM (inactive) | > 10 µM (inactive) | > 10 µM (inactive) |  | > 10 µM (inactive) | > 10 µM (inactive) | > 10 µM (inactive) | > 10 µM (inactive) | > 10 µM (inactive) | > 10 µM (inactive)
5 | Cc1cc(-c2cscn2)c(O)c([N+](=O)[O-])c1 | 16.1 µM (inactive) |  | 34.8 µM (inactive) | 65.8 µM (inactive) | 74.3 µM (inactive) | 34.2 µM (inactive) | 52.7 µM (inactive) | 55 µM (inactive) | 90.4 µM (inactive) | 31 µM (inactive) | 41 µM (inactive) |  | 49.7 µM (inactive) |  |  | > 100 µM (inactive) |  | 56 µM (inactive) |  | 28.7 µM (inactive)
6 | COc1ccc(NC(=O)CC(=O)N2N=C(C)C(/N=N/c3ccc(C(=O)O)cc3)C2=O)cc1 (stereo not given) |  |  | > 100 µM (inactive) | > 100 µM (inactive) | > 100 µM (inactive) | > 100 µM (inactive) | > 100 µM (inactive) | > 100 µM (inactive) | > 100 µM (inactive) | > 100 µM (inactive) | > 100 µM (inactive) | > 100 µM (inactive) | > 100 µM (inactive) | > 100 µM (inactive) | 71.8 µM (inactive) | > 100 µM (inactive) |  | > 100 µM (inactive) | > 100 µM (inactive) | > 100 µM (inactive)
7 | Cn1c(N)c(/C=C/C(=O)Oc2ccccc2)c(=O)n(C)c1=O | 56.5 µM (inactive) | > 100 µM (inactive) | > 100 µM (inactive) | > 100 µM (inactive) | > 100 µM (inactive) | > 100 µM (inactive) | 19.1 µM (inactive) | 67.9 µM (inactive) | > 100 µM (inactive) | > 100 µM (inactive) | > 100 µM (inactive) | > 100 µM (inactive) | > 100 µM (inactive) | 99.8 µM (inactive) | > 100 µM (inactive) | > 100 µM (inactive) |  | 50.8 µM (inactive) | 44.2 µM (inactive) | > 100 µM (inactive)
8 | O=C(O)CC[N+]1=CCC(c2ccccc2)(c2ccccc2)O1 | > 100 µM (inactive) | > 100 µM (inactive) |  | > 100 µM (inactive) | > 100 µM (inactive) | > 100 µM (inactive) | > 100 µM (inactive) | > 100 µM (inactive) | > 100 µM (inactive) | > 100 µM (inactive) |  | > 100 µM (inactive) | > 100 µM (inactive) | > 100 µM (inactive) |  | > 100 µM (inactive) |  | > 100 µM (inactive) | > 100 µM (inactive) | > 100 µM (inactive)
9 | CC1(C)CCC[C@]2(C)[C@@H]1CC[C@@]13O[C@@H]1C1=C(CO)C(=O)OC1=C[C@@H]23 | 20.6 µM (inactive) | 17.3 µM (inactive) |  | 13.9 µM (inactive) | 20.5 µM (inactive) | 18.2 µM (inactive) | 25.6 µM (inactive) | 5.68 µM (inactive) | 15.8 µM (inactive) | 15.5 µM (inactive) |  | 10.1 µM (inactive) | 1.44 µM (inactive) | 18.4 µM (inactive) | 11.9 µM (inactive) | 9.71 µM (inactive) |  |  | 19.9 µM (inactive) | 27.2 µM (inactive)
10 | Cc1ccccc1Nc1nc2c(s1)C(=O)c1ccccc1C2=O | 21.8 µM (inactive) | 2.43 µM (inactive) | 2.31 µM (inactive) | 13.3 µM (inactive) |  | 8.67 µM (inactive) | 16.4 µM (inactive) | 9.55 µM (inactive) | 5.82 µM (inactive) | 2.92 µM (inactive) | 3.34 µM (inactive) | 2.86 µM (inactive) | 2.36 µM (inactive) | 6.67 µM (inactive) | 9.38 µM (inactive) | 21.5 µM (inactive) | 3.27 µM (inactive) | 5.73 µM (inactive) | 8.87 µM (inactive) | 22.4 µM (inactive)
11 | CC(C)COP(C)(=O)C(N)(C(F)(F)F)C(F)(F)F (stereo not given) | > 100 µM (inactive) | > 100 µM (inactive) | > 100 µM (inactive) | > 100 µM (inactive) | > 100 µM (inactive) |  | > 100 µM (inactive) | > 100 µM (inactive) | > 100 µM (inactive) | > 100 µM (inactive) | 88.1 µM (inactive) |  | > 100 µM (inactive) | > 100 µM (inactive) | > 100 µM (inactive) | > 100 µM (inactive) | > 100 µM (inactive) | > 100 µM (inactive) |  | 
12 | COC(=O)CNC(=O)Nc1cc(N2C(=O)ON3C2C(C)(C)N(O)C3(C)C)ccc1C (stereo not given) | > 100 µM (inactive) | > 100 µM (inactive) |  | > 100 µM (inactive) | > 100 µM (inactive) | > 100 µM (inactive) | > 100 µM (inactive) | > 100 µM (inactive) | > 100 µM (inactive) | > 100 µM (inactive) | > 100 µM (inactive) | > 100 µM (inactive) | > 100 µM (inactive) |  | > 100 µM (inactive) | > 100 µM (inactive) | > 100 µM (inactive) | > 100 µM (inactive) | > 100 µM (inactive) | 
13 | CC(=O)O[C@H]1CC2C(C3CCC(C(C)CCC(N)=O)[C@]31C)[C@H](OC(C)=O)C[C@@H]1CC3(CC[C@]21C)OOC1(CC[C@]2(C)C4C[C@H](OC(C)=O)[C@]5(C)C(C(C)CCC(N)=O)CCC5C4[C@H](OC(C)=O)C[C@@H]2C1)OO3 (stereo not given in full) | 2.06 µM (inactive) | 1.11 µM (active) | 1.45 µM (inactive) | 1.67 µM (inactive) | 1.4 µM (inactive) | 1.69 µM (inactive) | 2.01 µM (inactive) | 1.69 µM (inactive) | 1.95 µM (inactive) | 1.33 µM (inactive) |  | 2.18 µM (inactive) | 1.33 µM (inactive) | 1.73 µM (inactive) | 1.66 µM (inactive) | 1.69 µM (inactive) |  |  | 1.61 µM (inactive) | 
14 | CN1CCN(c2nc3cc(F)ccc3n3cccc23)CC1 | 45.4 µM (inactive) | 23.1 µM (inactive) | 39.1 µM (inactive) | 33.7 µM (inactive) | 23.4 µM (inactive) | 18.5 µM (inactive) | 31 µM (inactive) | 30.8 µM (inactive) | 18 µM (inactive) | 20.6 µM (inactive) | 29.8 µM (inactive) | 46.5 µM (inactive) | 25.5 µM (inactive) |  | 39.2 µM (inactive) | 51.2 µM (inactive) | 43.8 µM (inactive) | 21.1 µM (inactive) | 23.4 µM (inactive) | 
15 | CSCC[C@H](NC(=O)[C@@H](N)CC(N)=O)C(=O)N[C@@H](Cc1c[nH]c2ccccc12)C(=O)N[C@@H](CCC(N)=O)C(=O)N[C@@H](CCC(=O)O)C(=O)N[C@H](C(=O)NCC(=O)N[C@@H](CCCCN)C(=O)N[C@H](C)C(=O)O)C(C)C (H-NMWQEVGK[dA]-OH) | > 100 µM (inactive) | > 100 µM (inactive) | > 100 µM (inactive) | > 100 µM (inactive) | > 100 µM (inactive) | > 100 µM (inactive) | > 100 µM (inactive) | > 100 µM (inactive) | > 100 µM (inactive) | > 100 µM (inactive) | > 100 µM (inactive) |  | > 100 µM (inactive) | > 100 µM (inactive) | > 100 µM (inactive) | > 100 µM (inactive) |  | > 100 µM (inactive) | > 100 µM (inactive) | > 100 µM (inactive)

Source: ChEMBL document CHEMBL1201862, “PubChem BioAssay data set” (2004)
